Experimental data from ChEMBL document CHEMBL4837250, “Discovery of LYC-55716: A Potent, Selective, and Orally Bioavailable Retinoic Acid Receptor-Related Orphan Receptor-γ (RORγ) Agonist for Use in Treating Cancer” (J Med Chem, 2021).
Converted amounts (≈) assume the structure as drawn.

Legend:
CYP3A4 = CYP3A4 (Homo sapiens, UniProt P08684); test: in vitro; conditions: probe testosterone
Description: Inhibition of CYP3A4 (unknown origin) assessed as oxidation of testosterone at 10 uM

in vitro = conditions: human, hepatocytes
physchem = conditions: PBS buffer, pH 7.4
Description: Solubility of the compound in pH 7.4 PBS buffer

[1] = target: T1, Nuclear receptor subfamily 1 group I member 2 (Homo sapiens, UniProt O75469)
T1 sequence (O75469 whole entry): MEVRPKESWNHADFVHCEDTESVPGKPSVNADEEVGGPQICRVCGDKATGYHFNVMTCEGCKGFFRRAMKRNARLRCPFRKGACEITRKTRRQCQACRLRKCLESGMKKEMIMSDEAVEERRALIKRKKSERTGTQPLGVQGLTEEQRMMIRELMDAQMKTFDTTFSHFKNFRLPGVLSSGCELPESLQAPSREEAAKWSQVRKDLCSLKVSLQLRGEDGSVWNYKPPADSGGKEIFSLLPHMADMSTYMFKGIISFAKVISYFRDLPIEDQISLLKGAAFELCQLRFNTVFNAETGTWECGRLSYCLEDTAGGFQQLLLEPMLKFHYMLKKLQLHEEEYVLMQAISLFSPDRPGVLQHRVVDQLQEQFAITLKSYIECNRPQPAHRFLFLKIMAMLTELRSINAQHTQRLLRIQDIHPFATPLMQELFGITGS
Description: Agonist activity at human PXR-gamma expressed in HEK293 cells assessed as transcriptional activity in presence of ursolic acid by Gal4-luciferase reporter assay

[2] = target: T2, Nuclear receptor ROR-gamma (Homo sapiens, UniProt P51449)
T2 sequence (P51449 whole entry): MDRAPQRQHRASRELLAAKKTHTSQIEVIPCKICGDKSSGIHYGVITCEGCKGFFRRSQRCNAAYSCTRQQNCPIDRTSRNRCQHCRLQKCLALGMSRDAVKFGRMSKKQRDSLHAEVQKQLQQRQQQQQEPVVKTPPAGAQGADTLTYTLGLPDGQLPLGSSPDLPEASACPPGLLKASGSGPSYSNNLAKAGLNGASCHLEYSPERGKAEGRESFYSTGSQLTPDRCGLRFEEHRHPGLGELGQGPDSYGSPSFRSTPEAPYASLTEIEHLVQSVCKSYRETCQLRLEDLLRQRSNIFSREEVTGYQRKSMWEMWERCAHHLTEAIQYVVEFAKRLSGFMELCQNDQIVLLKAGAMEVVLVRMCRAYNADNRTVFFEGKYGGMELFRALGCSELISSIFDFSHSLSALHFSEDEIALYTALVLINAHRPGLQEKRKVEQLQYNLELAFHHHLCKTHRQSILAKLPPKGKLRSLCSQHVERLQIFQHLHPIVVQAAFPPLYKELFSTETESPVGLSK
Description: Agonist activity at human His-tagged RORgamma-LBD expressed in Sf9 cells assessed as inhibition of N-terminal biotinylated co-activator SRC1 recruitment in presence of ursolic acid measured after 60 mins by FRET assay

[3] = target: T2, Nuclear receptor ROR-gamma; remark: listed apart in the source
Description: Agonist activity at human ROR-gamma LBD expressed in HEK293 cells assessed as transcriptional activity in presence of ursolic acid by Gal4-luciferase reporter assay

CYP2D6 = CYP2D6 (Homo sapiens, UniProt P10635); test: in vitro; conditions: probe testosterone
Sequence of CYP2D6 (P10635 whole entry): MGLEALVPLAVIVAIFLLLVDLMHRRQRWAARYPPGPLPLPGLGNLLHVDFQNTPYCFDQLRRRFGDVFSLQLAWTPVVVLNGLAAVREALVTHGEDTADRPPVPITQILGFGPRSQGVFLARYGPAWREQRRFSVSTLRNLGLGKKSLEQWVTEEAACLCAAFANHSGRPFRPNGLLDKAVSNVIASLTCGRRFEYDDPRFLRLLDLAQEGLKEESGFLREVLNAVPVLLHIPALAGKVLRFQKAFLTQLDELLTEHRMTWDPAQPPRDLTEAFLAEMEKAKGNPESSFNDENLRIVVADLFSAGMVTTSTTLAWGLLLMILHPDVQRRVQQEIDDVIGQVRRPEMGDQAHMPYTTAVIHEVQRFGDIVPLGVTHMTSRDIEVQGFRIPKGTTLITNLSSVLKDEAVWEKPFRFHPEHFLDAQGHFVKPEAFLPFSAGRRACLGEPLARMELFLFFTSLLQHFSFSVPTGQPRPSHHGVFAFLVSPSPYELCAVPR
Description: Inhibition of CYP2D6 (unknown origin) assessed as oxidation of testosterone at 10 uM

Sequence of CYP3A4 (P08684 whole entry): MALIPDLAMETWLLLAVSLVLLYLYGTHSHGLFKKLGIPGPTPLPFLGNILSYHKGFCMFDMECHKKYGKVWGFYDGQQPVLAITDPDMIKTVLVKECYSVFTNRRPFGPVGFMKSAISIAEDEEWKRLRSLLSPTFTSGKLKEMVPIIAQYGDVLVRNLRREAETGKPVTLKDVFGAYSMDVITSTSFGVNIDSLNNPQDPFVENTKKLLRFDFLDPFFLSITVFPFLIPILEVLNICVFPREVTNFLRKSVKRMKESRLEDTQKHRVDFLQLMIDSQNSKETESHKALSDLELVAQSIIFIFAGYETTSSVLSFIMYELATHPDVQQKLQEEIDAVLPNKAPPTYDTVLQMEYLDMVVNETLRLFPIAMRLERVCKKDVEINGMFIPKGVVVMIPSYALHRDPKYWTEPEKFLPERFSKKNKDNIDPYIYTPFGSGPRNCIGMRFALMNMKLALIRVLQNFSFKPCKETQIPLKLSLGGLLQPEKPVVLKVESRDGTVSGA

SMILES	inhibition at 10 µM (CYP3A4)	hepatocyte CLint (in vitro)	solubility (physchem)	EC50 [1]	EC50 [2]	EC50 [3]	inhibition at 10 µM (CYP2D6)
O=C(O)CC[C@H]1CN(S(=O)(=O)c2cccc(C(F)(F)F)c2)c2cc(-c3cc(F)cc(F)c3)ccc2O1	25%	31 µL/min/1e6 cells	277 µM (≈ 146 µg/mL)	> 10 µM			
C/C(=C\c1ccc2c(c1)N(S(=O)(=O)c1cccc(OC(F)F)c1)C[C@H](CCC(=O)O)O2)c1c(F)cccc1Cl	9%	9.4 µL/min/1e6 cells	248 µM (≈ 144 µg/mL)	9.1 µM	0.195 µM	0.28 µM	2%
O=C(O)CC[C@H]1CN(S(=O)(=O)c2cccc(C(F)(F)F)c2)c2cc(-c3cccc(F)c3)ccc2O1	19%			> 10 µM			0%
O=C(O)C1(C[C@H]2CN(S(=O)(=O)c3cccc(C(F)(F)F)c3)c3cc(-c4cccc(Cl)c4F)ccc3O2)CCOCC1	36%	13 µL/min/1e6 cells	93 µM (≈ 57.1 µg/mL)	> 10 µM	0.024 µM	0.103 µM	9%
O=C(O)CC[C@H]1CN(S(=O)(=O)c2cccc(C(F)(F)F)c2)c2cc(-c3cccc(Cl)c3)ccc2O1	24%			> 10 µM			0%
O=S(=O)(c1cccc(C(F)(F)F)c1)N1C[C@H](CC2(CO)COC2)Oc2ccc(Br)cc21				> 10 µM			
O=C(O)[C@@H](O)CC[C@H]1CN(S(=O)(=O)c2cccc(C(F)(F)F)c2)c2cc(-c3cc(F)ccc3F)ccc2O1		18 µL/min/1e6 cells		> 10 µM	0.013 µM	0.501 µM	
C[C@@H](C[C@H]1CN(S(=O)(=O)c2cccc(C(F)(F)F)c2)c2cc(-c3cc(F)ccc3F)ccc2O1)C(=O)O	17%			> 10 µM			13%
O=C(O)CC[C@H]1CN(S(=O)(=O)c2cccc(C(F)(F)F)c2)c2cc(-c3ccc(Cl)cc3)ccc2O1	14%	38 µL/min/1e6 cells	15 µM (≈ 7.89 µg/mL)		0.027 µM		-2%
COc1cc(F)cc(-c2ccc3c(c2)N(S(=O)(=O)c2cccc(C(F)(F)F)c2)C[C@H](CCC(=O)O)O3)c1				> 10 µM			
COc1ccccc1/C(C)=C/c1ccc2c(c1)N(S(=O)(=O)c1cccc(C(F)(F)F)c1)C[C@H](CCC(=O)O)O2	19%	33 µL/min/1e6 cells	183 µM (≈ 103 µg/mL)	> 10 µM			3%
O=C(O)CC[C@H]1CN(S(=O)(=O)c2cccc(C(F)(F)F)c2)c2cc(-c3cc(F)ccc3F)ccc2O1	13%	31 µL/min/1e6 cells	227 µM (≈ 120 µg/mL)	> 10 µM	0.008 µM	0.181 µM	1%
C/C(=C\c1ccc2c(c1)N(S(=O)(=O)c1cccc(C(F)(F)F)c1)C[C@H](CCC(=O)O)O2)c1ccccc1C	0%						-6%
C[C@H](C[C@H]1CN(S(=O)(=O)c2cccc(C(F)(F)F)c2)c2cc(-c3cc(F)ccc3F)ccc2O1)C(=O)O	18%			> 10 µM			11%
C/C(=C\c1ccc2c(c1)N(S(=O)(=O)c1ccc(F)c(C3CC3)c1)C[C@H](CCC(=O)O)O2)c1c(F)cccc1Cl	4%	11 µL/min/1e6 cells	250 µM (≈ 144 µg/mL)	6.7 µM	0.269 µM	0.495 µM	10%
C/C(=C\c1ccc2c(c1)N(S(=O)(=O)c1ccc(F)c(C(F)(F)F)c1)C[C@H](CCC(=O)O)O2)c1c(F)cccc1Cl		24 µL/min/1e6 cells	61 µM (≈ 36.7 µg/mL)	6 µM	0.085 µM	0.411 µM	
O=C(O)[C@H](O)CC[C@H]1CN(S(=O)(=O)c2cccc(C(F)(F)F)c2)c2cc(-c3cc(F)ccc3F)ccc2O1		13 µL/min/1e6 cells		> 10 µM	0.12 µM	0.166 µM	

Other lines, results leading:

inhibition at 10 µM (CYP3A4)	hepatocyte CLint (in vitro)	solubility (physchem)	EC50 [1]	EC50 [2]	EC50 [3]	inhibition at 10 µM (CYP2D6)	SMILES
			> 10 µM	0.342 µM	> 10 µM		O=C(O)CC[C@H]1CN(S(=O)(=O)c2cccc(C(F)(F)F)c2)c2cc(/C=C/c3ccc(Cl)cc3F)ccc2O1
5%			> 10 µM			-6%	O=C(O)CC[C@H]1CN(S(=O)(=O)c2cccc(C(F)(F)F)c2)c2cc(-c3cc(F)cc(OC(F)F)c3)ccc2O1
		201 µM (≈ 114 µg/mL)	18 µM	0.01 µM	0.179 µM		O=C(O)C1(C[C@H]2CN(S(=O)(=O)c3cccc(C(F)(F)F)c3)c3cc(-c4cc(F)ccc4F)ccc3O2)COC1
6%	23 µL/min/1e6 cells	309 µM (≈ 186 µg/mL)	> 10 µM	0.435 µM	0.487 µM	-1%	C/C(=C\c1ccc2c(c1)N(S(=O)(=O)c1cccc(C(F)(F)F)c1)C[C@H](CCC(=O)O)O2)c1c(Cl)cccc1Cl
28.5%			> 10 µM			6%	CC(C)(C[C@H]1CN(S(=O)(=O)c2cccc(C(F)(F)F)c2)c2cc(-c3cccc(Cl)c3F)ccc2O1)C(=O)O
18%	23 µL/min/1e6 cells	260 µM (≈ 156 µg/mL)	> 10 µM	0.108 µM	0.29 µM	2%	C/C(=C\c1ccc2c(c1)N(S(=O)(=O)c1cccc(C(F)(F)F)c1)C[C@H](CCC(=O)O)O2)c1ccccc1C(F)(F)F
19%	36 µL/min/1e6 cells	287 µM (≈ 160 µg/mL)	> 10 µM	0.01 µM	0.278 µM	7%	O=C(O)CC[C@H]1CN(S(=O)(=O)c2cccc(C(F)(F)F)c2)c2cc(-c3cccc(OC(F)F)c3)ccc2O1
19%	44 µL/min/1e6 cells	280 µM (≈ 146 µg/mL)	> 10 µM			2%	COc1cccc(-c2ccc3c(c2)N(S(=O)(=O)c2cccc(C(F)(F)F)c2)C[C@H](CCC(=O)O)O3)c1
15%	27 µL/min/1e6 cells	239 µM (≈ 130 µg/mL)	> 10 µM	0.145 µM	0.124 µM	6%	O=C(O)CC[C@H]1CN(S(=O)(=O)c2cccc(C(F)(F)F)c2)c2cc(-c3cc(F)ccc3Cl)ccc2O1
-0.5%			> 10 µM			10%	COc1cc(S(=O)(=O)N2C[C@H](CCC(=O)O)Oc3ccc(/C=C(\C)c4c(F)cccc4Cl)cc32)ccc1F
33%	26 µL/min/1e6 cells	273 µM (≈ 156 µg/mL)	> 10 µM	0.033 µM	0.617 µM	-5.6%	O=C(O)CC[C@H]1CN(S(=O)(=O)c2cccc(C(F)(F)F)c2)c2cc(/C=C/c3c(F)cccc3Cl)ccc2O1
5%	21 µL/min/1e6 cells	43 µM (≈ 25.7 µg/mL)	> 10 µM	0.005 µM	> 10 µM	8%	O=C(O)C1(C[C@H]2CN(S(=O)(=O)c3cccc(C(F)(F)F)c3)c3cc(-c4cc(F)ccc4F)ccc3O2)CCOCC1
-4%	31 µL/min/1e6 cells		> 10 µM	0.042 µM	> 10 µM	2%	CC(C)c1ccc(-c2ccc3c(c2)N(S(=O)(=O)c2cccc(C(F)(F)F)c2)C[C@H](CCC(=O)O)O3)cc1
-2%	9 µL/min/1e6 cells	90 µM (≈ 58.1 µg/mL)	13 µM	0.008 µM	0.058 µM	4%	O=C(O)C1(C[C@H]2CN(S(=O)(=O)c3cccc(C(F)(F)F)c3)c3cc(-c4cc(F)cc(OC(F)F)c4)ccc3O2)CCOCC1
			> 10 µM	> 10 µM	> 10 µM		O=C(O)CC[C@H]1CN(S(=O)(=O)c2cccc(C(F)(F)F)c2)c2cc(-c3cccc(OCCO)c3)ccc2O1
-3%	22 µL/min/1e6 cells	267 µM (≈ 142 µg/mL)	> 10 µM			3%	C/C(=C\c1ccc2c(c1)N(S(=O)(=O)c1cccc(C(F)(F)F)c1)C[C@H](CCC(=O)O)O2)c1ccccc1
7%	22 µL/min/1e6 cells	309 µM (≈ 175 µg/mL)	> 10 µM			13%	C/C(=C\c1ccc2c(c1)N(S(=O)(=O)c1cccc(C(F)(F)F)c1)C[C@H](CCC(=O)O)O2)c1ccccc1Cl
